Counter-ions that a name gives are not always drawn.
Legend:
Patient one = assay: Protocol and results with patient one (cigarette smoking); conditions: January 1998; Ionamin 15 mg + Prozac 10 mg MWF (+ Estratest, occasional Tranxene)
From the text: In addition, they were started on the moderate dose of the patch.

Patient four = assay: Protocol and results with patient four (morbid obesity, cardiomyopathy); type: in vivo, human; conditions: for cardiac index remeasured / body weight the next month: combination Adipex-P 37.5 one-half + Zoloft 25 mg + Aricept 1.25 mg + fenfluramine 5 mg (+ atenolol 12.5 mg); for body weight the next month: from 235 lb June 1999
Protocol: This person has been in the practice for several years. Their medical problems surround a cardiomyopathy with a low cardiac output state and heart failure. They also have a history of hypertension, hypothyroidism on therapy, and morbid obesity.
Medication alterations continued over the next several months with increasing Ionamin to 30 mg. Hytrin was added at 2 mg because of prostatic symptoms and in November Pondimin was added.
Adipex-P 37.5 one-half was added to their medications. […]

Patient six [1] = assay: Protocol and results with patient six, Example 12 (thalamic pain syndrome, ethanol use); conditions: for body weight change: approximately five weeks into therapy, combination Adipex-P + fenfluramine + Celexa + Nutrimed; for energy level / pain as described by patient: combination Adipex-P 37.5 one-half b.i.d. + fenfluramine 10 mg + Celexa 10 mg + Nutrimed three times daily (+ atenolol 25 mg); for alcohol withdrawal phenomena: combination Adipex-P 37.5 one-half b.i.d. + fenfluramine 10 mg + Celexa 10 mg + Nutrimed three times daily + Librium 30 mg (three days) + atenolol 25 mg; for outcome of earlier trials for thalamic pain syndrome: before the protocol
Protocol: Person with sudden onset of numbness right side of body in Guyana 1973. […] Diagnosis was thalamic pain syndrome.
Other medical problems: borderline hypertension, obesity secondary to ETOH, hemorrhoids, and remote short-lived cigarette smoking.
At the time therapy started the patient was taking either hydrocodone/APAPE 7.5/500 as needed or Percocet. […] Therapy was started with Adipex-P 37.5 one-half p.o. bid., fenfluramine 10 mg p.o. q.a.m., Celexa 10 mg p.o. q.a.m., Nutrimed three times daily plus dinner for nutritional support (Nutrimed is a high protein, low carbohydrate semi-starvation fast), Librium 30 mg q.d. because of the discontinuation of alcohol, atenolol 25 mg q.a.m. Treatment started July 1999.
By mid-August, approximately five weeks into therapy, the patient was still on Nutrimed and Adipex but the fenfluramine was diminished to one-quarter of a pill or 5 mg. The atenolol was discontinued and the patient was encouraged to exercise.

Patient three = assay: Protocol and results with patient three (chronic fatigue); conditions: for side effect noted by patient: combination reduced to Adipex-P 37.5 one-half, Celexa one-quarter, Aricept one-quarter, fenfluramine one-quarter pill q.a.m.; for patient-reported status: within two days, combination Adipex-P 37.5 mg one-half b.i.d. + Celexa 10 mg q.d. + fenfluramine 10 mg q.d. + Aricept one-half q.d.
From the text: Longstanding patient in my practice who […] developed a viral illness followed by chronic fatigue. This problem persisted, numerous evaluations and consultations were obtained, in excess of 20 physicians were consulted, and the patient was followed for nine months in a major medical center with the diagnosis of chronic Lyme disease. Prior to this their symptoms included a compendium of mild lifelong autonomic dysfunction including chronic bladder and urethral problems which necessitated urological surgery in the distant past. They had not retired from work but had taken long leaves of absence and found it difficult to keep up their normal work schedule as a social worker, something they had done for many years. In the past for their autonomic dysfunction they had been placed on Depakote, Wellbutrin, and amitriptyline and they were on this when they became ill.
Their other medical problems included mitral valve prolapse with click and no murmur but no symptoms, a history of endometriosis, occasional kidney stones, and an ovarian cyst.
Therapy was begun on May 26, 1999. On Jun. […] They were still on 12.5 mg of Elavil or one-half pill and some minocin for acne, Wellbutrin from their psychiatrist, and Zithromax, an antibiotic started by other physicians for the treatment of Lyme disease. This is something that I advised them to discontinue, but they continued because of the concerns of the diagnosis.

Patient six [2] = assay: Protocol and results with patient six, Example 10 (fibromyalgia, obesity); type: in vivo, human; conditions: for weight lost on therapy to date: Ionamin + fenfluramine (until 1996) + Zoloft from December 1995, Aricept from August 1998; for body weight: July 1999; for overall condition: over three years from December 1995, combination Ionamin 30 mg + fenfluramine 20 mg + Zoloft 25 mg, fenfluramine discontinued 1996
From the text: This longstanding patient was first seen in 1988 for fibromyalgia. They are also bothered by chronic low back pain, mitral valve prolapse, sleep disturbance, a family history of coronary disease, and obesity. They are 5′8″ tall, 205½ lb. […] Their problem list contained the additional diagnoses of GERD, carpal tunnel syndrome, suspected mitral valve prolapse, and acne rosacea.
Their medication list included Synthroid, Estratest, Klonopin, Prilosec, Limbitrol, Provera, Premarin and Zostrix cream. […] They frequented health food stores, as well as chiropractors for relief.
Although greatly fearful of potential long-term problems, the patient finally agreed to the institution of a change in their medications and started therapy which was a major change in their medicines December 1995. […] At that time the patient's weight was in the mid 180s. Their other medications were continued.
This was an independent patient-initiated decision.

Patient five = assay: Protocol and results with patient five (severe obesity); type: in vivo, human; conditions: for body weight: December 1997, combination Ionamin 30 mg + fenfluramine 20 mg + Zoloft 25 mg q.d. since August 1995, start in excess of 350 lb; for body weight reported by phone: combination Adipex-P 37.5 mg one-half b.i.d. + Celexa 20 mg one-half MWF + Adalat 30 + Aricept + Nutrimed three times daily, from 264¼ lb
From the text: This person has been a patient in this practice for many years. Their medical problems are extremely long-lived and include chronic depression, severe obesity, hypertension, stasis dermatitis, and venous insufficiency of the lower extremities, and seborrhea.
In addition they were taking Lasix, Zaroxolyn and potassium for the control of their severe edema and leg pain. They were also using the CPAP machine.
At their insistence Meridia and Adalat were attempted. […] To augment the weight loss the patient was started on Nutrimed three times daily plus a regular dinner.

Patient two = assay: Protocol and results with patient two (leg pain, absence of energy); type: in vivo, human; conditions: for body weight: August 1999, from 143 lb November 1998, Celexa 10 mg + Adipex-P 37.5 one-half (+ atenolol 25 mg), later with Aricept 1.25 mg three times weekly; for weight reduction / leg aches: Celexa + Adipex-P + Aricept (atenolol at first); for weight reduction: November 1998 to August 1999; for leg aches: by August 1999
Protocol: First evaluated this 5′4″, ectomorphic, single person who was […] at the time.
On Nov. […] They were started on Celexa 10 mg, Adipex-P 37.5 one-half tablet, and atenolol 25 mg all in the morning.
They will keep in touch with me as they will take each instruction for four doses and then go to the next.

[3] = July 1997, combination Ionamin 30 mg + Zoloft 25 + Pondimin
[4] = November, Ionamin (15 then 30 mg) + Zoloft 25 since April 1996, before Pondimin, not decreasing, averaging 237 lb before
[5] = current medication includes Ionamin 15 mg q.a.m. and Aricept one-quarter pill MWF

Compound: CC(C)(N)Cc1ccccc1 [Adipex-P, phentermine]
- body weight (Patient one): 119 lb
- smoking status (Patient one): not smoking
- improvement (weight, fatigue) (Patient four; Adipex-P 37.5 one-half + Celexa 10 mg twice weekly + Aricept one-quarter pill MWF, in the absence of fenfluramine): essentially no improvement
- body weight (Patient four; [3]): 217 lb
- cardiac output by echocardiography (Patient four; [3]): improved
- body weight (Patient four; [4]): 230 lb
- cardiac index remeasured (Patient four): even more improved than previously
- body weight the next month (Patient four): 218
- body weight change (Patient six [1]): marked weight loss
- energy level (Patient six [1]): marked improvement in energy level
- pain as described by patient (Patient six [1]): markedly diminished
- alcohol withdrawal phenomena (Patient six [1]): no withdrawal phenomena
- side effect noted by patient (Patient three): some difficulty sleeping
- patient-reported status (Patient three): life had been transformed back towards its normal status
- weight lost on therapy to date (Patient six [2]): approximately 25 lb
- body weight (Patient six [2]; [5]): 161 lb
- chronic fatigue remaining, of its original (Patient six [2]; [5]): ~20%
- overall condition (Patient six [2]): greatly improved
- body weight (Patient five): 245 lb
- body weight reported by phone (Patient five): ~240 lb
- body weight (Patient two): 127 lb
- weight reduction (Patient two): 12.5%
- leg aches (Patient two): resolution of their leg aches

Compound: NC(=O)N1c2ccccc2C=Cc2ccccc21 [Tegretol]
- outcome of earlier trials for thalamic pain syndrome (Patient six [1]): no help

Compound: CN(C)CCCC1(c2ccc(F)cc2)OCc2cc(C#N)ccc21 (stereo not shown) [Celexa, citalopram]
- body weight reported by phone (Patient five): ~240 lb
- body weight (Patient two): 127 lb
- weight reduction (Patient two): 12.5%

Compound: NCC1(CC(=O)O)CCCCC1 [Neurontin]
- outcome of earlier trials for thalamic pain syndrome (Patient six [1]): no help

Compound: COc1cc2c(cc1OC)C(=O)C(CC1CCN(Cc3ccccc3)CC1)C2 (stereo not shown) [Aricept, donepezil]
- patient-reported status after addition (Patient six [2]; Aricept 2.5 mg Monday, Wednesday, Friday added August 1998 to ongoing therapy): felt much better
- weight lost on therapy to date (Patient six [2]): approximately 25 lb
- body weight (Patient six [2]; [5]): 161 lb
- weight reduction (Patient two): 12.5%
- leg aches (Patient two): resolution of their leg aches

Compound: CCNC(C)Cc1cccc(C(F)(F)F)c1 (stereo not shown) [fenfluramine]
- body weight (Patient four; [3]): 217 lb
- cardiac output by echocardiography (Patient four; [3]): improved
- cardiac index remeasured (Patient four): even more improved than previously
- body weight the next month (Patient four): 218
- body weight change (Patient six [1]): marked weight loss
- energy level (Patient six [1]): marked improvement in energy level
- pain as described by patient (Patient six [1]): markedly diminished
- alcohol withdrawal phenomena (Patient six [1]): no withdrawal phenomena
- side effect noted by patient (Patient three): some difficulty sleeping
- patient-reported status (Patient three): life had been transformed back towards its normal status
- weight lost on therapy to date (Patient six [2]): approximately 25 lb
- overall condition (Patient six [2]): greatly improved
- body weight (Patient five): 245 lb

Compound: CN(C)CCC=C1c2ccccc2CCc2ccccc21 [Elavil]
- outcome of earlier trials for thalamic pain syndrome (Patient six [1]): no help

Compound: CN[C@H]1CC[C@@H](c2ccc(Cl)c(Cl)c2)c2ccccc21 [Zoloft, sertraline HCl]
- cardiac output by echocardiography (Patient four; [3]): improved
- body weight (Patient four; [4]): 230 lb
- weight lost on therapy to date (Patient six [2]): approximately 25 lb
- overall condition (Patient six [2]): greatly improved
- body weight (Patient five): 245 lb

Compound: CNC1=Nc2ccc(Cl)cc2C(c2ccccc2)=[N+]([O-])C1 [Librium]
- side effect (Patient six [1]; 30 mg q.d., discontinued by day three): mild sleepiness
- alcohol withdrawal phenomena (Patient six [1]): no withdrawal phenomena

Compound: hydrocodone/APAPE [hydrocodone/APAPE 7.5/500]
- effect on pain (Patient six [1]; taken as needed at the time therapy started): not effective

Compound: O=C1NC(=O)C(c2ccccc2)(c2ccccc2)N1 [Dilantin]
- outcome of earlier trials for thalamic pain syndrome (Patient six [1]): no help

Compound: CNCCC(Oc1ccc(C(F)(F)F)cc1)c1ccccc1 (stereo not shown) [Prozac, fluoxetine HCl]
- body weight (Patient one): 119 lb
- smoking status (Patient one): not smoking

Source: patent publication US6617361B2, “Behavior chemotherapy” (Be Able, LLC, priority 1999, dated 2003)
